Assay results taken from US11331335B2, “Sepsis treatment and related compositions methods and systems” (CALIFORNIA INSTITUTE OF TECHNOLOGY, priority 2015, dated 2022).

Key:
[1] = tested on: TNBS colitis; assay: TNBS colitis, systemic (spleen) inflammation after PSA; assay type: in vivo, mouse
Experimental: Three models of intestinal inflammation were used: 1) CD4^+CD45Rb^high T cells were purified from the spleens of wild-type or IL-10^−/− donor mice by flow cytometry and transferred into Rag (C57Bl/6) recipients as described. 2) TNBS colitis was induced by pre-sensitization of wild-type (C57Bl/6) mice on the skin with a TNBS/acetone mix. Seven days after sensitization, 2.5% TNBS in ethanol was administered rectally; mice were sacrificed 3-6 days later.
Cytokines from the spleen, colons, or mesenteric lymphonodes (MLNs) were assayed by ELISA, Q-PCR, or flow cytometry. Colitis was assessed with tissue sections (fixed, paraffin embedded, sectioned onto a slide, and stained with hematoxylin and eosin) and was scored by a blinded pathologist (Dr. R. T. Bronson, Harvard Medical School) according to a standard scoring system: 0, no thickening of colonic tissues and no inflammation (infiltration of lymphocytes); 1, mild thickening of tissues but no inflammation; 2, mild thickening of tissues and mild inflammation; 3, severe thickening and severe inflammation. BMDCs were purified from femurs of mice after extraction and washing in PBS. Cells were cultured for 8 days in C-RPMI-10 in the presence of GM-CSF (20 ng/mL; Biosource, Camarillo, Calif.). CD4^+ T cells were purified by negative selection over a magnetic column (Miltenyi or R& D Systems).
The backs of wild-type (C57BL/6) male mice were shaved, and pre-sensitization solution (150 μL; acetone with olive oil in a 4:1 ratio mixed with 5% TNBS in a 4:1 ratio) was slowly applied. […] Mice were analyzed 4-6 days after TNBS administration.
Animals were orally gavaged with vehicle or PSA twenty-four hours prior to being induced with colitis. Five days post-induction CD4+ T cells were isolated from the spleens of indicated animals and analyzed for the inflammatory cytokines TNF-α, IL-17a and IL-6 to determine how systemic inflammation is influenced during intestinal disease.

[2] = tested on: endotoxin (lipopolysaccharide; LPS) induced sepsis, Balb/c animals; assay: Endotoxic shock model (high dose LPS), PSA given orally or intravenously before induction; assay type: in vivo, mouse
Experimental: In this model, animals are treated intravenously with high doses of endotoxin (lipopolysaccharide; LPS). Administration of LPS leads to the production of massive amounts of inflammatory cytokines such as tumor necrosis factor α (TNF-α) and IL-6 and animals rapidly succumb to death. This model closely resembles the cytokine storm seen in patients suffering from septic shock.
(§1) Five days post-induction CD4+ T cells were isolated from the spleens of the indicated animals. Equal amounts of RNA were used to perform q-RT-PCR on IL6 or TNFa cytokines at 1 and 4 hours post-LPS. (FIG. 1 panel A diagram on the left, and FIG. 1 panel B diagram on the left)
as §1, with “In another set of experiments, Balb/c animals were treated intravenously with PSA 24 hours prior to be induced with TNBS colitis. Five” for “Five”, “right,” for “left,”, “right)” for “left)”
Detection of percent survival of in animals treated intravenously with high doses of endotoxin (lipopolysaccharide; LPS) was performed. Accordingly, Balb/C animals were orally or intravenously treated with PSA or PBS as described in Example 2 and the number of surviving mice counted.

[3] = tested on: cecal-ligation puncture (CLP) model; assay: Cecal-ligation puncture (CLP) model of sepsis; assay type: in vivo, mouse; details: PSA vs PBS mock treated (about fifty percent succumbed)
Source text: To validate a role for PSA during protection from sepsis, a second, well-established mouse model of sepsis called the cecal-ligation puncture (CLP) model was used. CLP induces colonic spillage of bacteria into the peritoneal cavity, which then enter the bloodstream. Although there are limitations, this model is thought to best mimic a primary cause of human sepsis (polymicrobial infection from the gut).

[4] = tested on: endotoxin induced sepsis, Balb/c animals; assay: Endotoxin induced sepsis, PSA administered i.v. after LPS; assay type: in vivo, mouse
Experimental: To mimic a clinically significant treatment situation, PSA was administered after inducing endotoxin induced sepsis. Balb/c animals were treated with high doses of LPS (500 ug) i.p. and subsequently treated i.v. with PBS, PSA or PSA was administered 30 minutes post-LPS (see FIG. 2).
Since this is an acute model, where overt inflammation occurs within one hour after induction two timepoints for PSA treatment were tested. In particular, serum was collected 1 and 4 hours post-LPS injection and cytokines TNF-α (FIG. 2 Panel A) and IL-6 (FIG. 2 Panel B) were detected by ELISA.
Each experiment consisted of at least 4 animals in each groups and was repeated twice. * p<0.05 **p<0.005 as measured by a students t test One group received i.v. administration of PSA directly after LPS injection (PSA same) while the second group received PSA thirty minutes post-LPS injection (PSA-post) (FIG. 2).

[5] = tested on: endotoxin shock in TLR2−/− mice; assay: Endotoxin induced sepsis in TLR2-/- mice; assay type: in vivo, mouse
Experimental: (§2) FIG. 6 Panels C and A show detection of TNF-a in TLR2^−/− or IL-10^−/− mice treated intravenously treated i.v. with PBS or PSA directly following induction of endotoxin shock by intraperitoneal administration of high doses of LPS (500 ug).
(§3) Therefore, to determine whether PSA protection from endotoxin induced sepsis also required these pathways the following experiments were performed.

[6] = tested on: endotoxin shock in IL-10−/− mice; assay: Endotoxin induced sepsis in IL-10-/- mice; assay type: in vivo, mouse
Experimental: as §2, §3

[7] = tested on: LPS sepsis in RAG−/− mice; assay: Endotoxin induced sepsis in RAG-/- mice with or without transfer of T cells, CD4 depleted splenocytes or CD19+ B cells; assay type: in vivo, mouse
Experimental: In particular, the requirement for T and B cells during PSA mediated protection from sepsis was tested.
In a first set of experiments, RAG^−/− animals were treated i.v. with either PBS or PSA 24 hours prior to receiving high dose LPS i.p. Serum was collected from animals at 1 and 4 hours, TNF-α and IL-6 were measured by ELISA (FIG. 3 Panel A) and survival monitored (FIG. 3 Panel B). Two experiments were combined. *p<0.05 **p<0.005 using a logrank and Gehan-Wilcoxon test.
In a second set of experiments, RAG^−/− recipients received either CD4+CD3+ (square) or total T cells (CD3+) (triangle) or CD4 depleted splenocytes (includes CD8+ T cells and CD19+ B cells) (sphere). Twenty-four hours later animals were given LPS. Serum was collected 1 and 4 hours post-LPS to measure cytokines (FIG. 3 Panel C) and survival was monitored (FIG. 3 Panel D).
In a third set of experiments sort purified CD19+ total B cells were purified from the spleen of donor animals and transferred into RAG^−/− recipients and inflammatory cytokines were monitored at 1 and 4 hours (FIG. 3 Panel E) as well as survival (FIG. 3 Panel F). * p<0.05 **p<0.005 by a student's t test for all ELISA data and *p<0.05 **p<0.005 using a logrank and Gehan-Wilcoxon test for survival data. ELISA data is representative from one experiment repeated twice with an n of 4 in each group. Survival data combines multiple experiments.

[8] = tested on: LPS sepsis in RAG−/− recipients of B1 or MZ B cells; assay: Endotoxin induced sepsis in RAG-/- recipients of sort purified B1 or MZ B cells, treated with PSA; assay type: in vivo, mouse
Experimental: Multiple subsets of B cells exist within the spleen including B1, follicular, and MZ B cell populations. […] Both B1 and MZ B cells can secrete IgM in a T cell independent manner, therefore experiments were performed to determine whether either of these subsets conferred protection from sepsis by PSA. B1 cells and MZ B cells were sort purified and transferred into RAG^−/− animals. Animals were subsequently treated with PSA and induced for disease.
In particular in a first set of experiments, marginal zone B cells (CD19+B220+IgM^hiCD21^hiCD23) were sort purified and transferred into RAG^−/− recipients. Twenty-four hours later these animals were given high dose LPS and serum collected at 1 and 4 hours to assay for TNF-α (FIG. 4 Panel A) and survival was monitored (FIG. 4 Panel B).

[9] = tested on: marginal zone B cells; assay: Transfer of MZ B cells from PSA treated donors into RAG-/- recipients, then LPS induced sepsis; assay type: in vivo, mouse
Experimental: To further validate this conclusion, experiments were performed to determine whether the function of PSA on MZ B cells could be transplanted into mice that have never been treated with PSA. WT animals were treated i.v. with two doses of PSA and splenic MZ B cells were isolated and subsequently transferred into a RAG^−/− recipients. LPS induced sepsis was then induced in the MZ B cell recipients without any treatment with PSA.
In particular a second set of experiments, WT C57Bl/6 animals were treated i.v. with either PBS or PSA (100 ug) every other day for a total of three days (FIG. 4 Panels C and D). MZ B cells were subsequently sort purified as in the first set of experiments and 8×10^5 MZ B cells were transferred into RAG^−/− recipients. Twenty-four hours later animals received high dose LPS (500 ug). Serum was collected at indicated time points to analyze TNF-α (FIG. 4 Panel E) and survival monitored (FIG. 4 Panel F). * p<0.05 **p<0.005 by a student's t test for all ELISA data and *p<0.05 **p<0.005 using a logrank and Gehan-Wilcoxon test for survival data.
Marginal zone B cells secrete copious amounts of polyreactive IgM. […] Based on this, serum was isolated from RAG^−/− animals that received a MZ B transplant from PSA treated mice and quantitated IgM serum levels.

[10] = tested on: LPS sepsis in RAG−/− recipients of sIgM−/− B cells; assay: Endotoxin induced sepsis in RAG-/- recipients of B cells from sIgM-/- mice; assay type: in vivo, mouse
Source text: To test whether IgM is the mechanism by which PSA is able to protect from endotoxin induced sepsis total B cells were isolated from the spleen of animals that are unable to make secreted IgM (sIgM^−/−) and transferred these cells into RAG^−/− recipients according to procedure of Example 7.

[11] = tested on: TNF-α or IL-6 production; assay: Cytokine induction by PSA administered i.v. alone; details: data not shown
[12] = PSA i.v. thirty minutes post-LPS (PSA post)
[13] = PSA i.v. following LPS 500 ug i.p.
[14] = RAG−/− mice reconstituted with CD19+ total B cells, i.v. PSA vs PBS

polysaccharide A [PSA] was tested. Which “inflammatory cytokine expression (TNF-α, IL-17a, IL-6) in splenic CD4+ T cells” value ([1]; PSA orally gavaged 24 h prior to colitis induction, five days post-induction, vs colitogenic animals) did it give?
Its value is “reduced cytokine expression”.

What about the “whether PSA influences inflammation within the systemic compartment (colon disease score, survival; FIG. 5 C, D)” value ([1]; intravenous PSA 24 h prior to TNBS colitis) of the same substance?
The value was “supported this conclusion”.

What about the “splenomegaly in colitic animals” value ([1]; orally gavaged PSA) of the same substance?
Its value is “able to prevent”.

And the “serum inflammatory cytokines (TNF-α, IL-6)” value ([2]; PSA provided directly within the blood (intravenous), 1 and 4 hours post-LPS, vs mock treated)?
Its value is “significantly blocked induction of serum inflammatory cytokines”.

What about the “serum TNF-α” value ([2]; animals fed PSA (oral gavage), vs mock treated) of the same substance?
The value was “slightly elevated”.

And the survival ([2]; intravenous administration of PSA)?
The survival was “potently protected animals from death”.

And the survival [3]?
The survival was “significantly increased survival rate”.

And the “serum TNF-α and IL-6 levels” value ([4]; PSA i.v. directly following LPS 500 ug i.p. (PSA same), 1 and 4 hours post-LPS)?
The value was “reduced levels”.

And the survival ([4]; PSA i.v. directly following LPS (PSA same))?
The survival was “high survival rate”.

What about the “serum TNF-α” value [4, 12] of the same substance?
The value was “lower serum levels”.

And the survival [4, 12]?
The survival was “higher survival rate”.

What about the “TNFα and IL-6 levels during septic shock” value ([5]; PSA i.v.) of the same substance?
Its value is “suppressed”.

What about the survival [5, 13] of the same substance?
Its survival is “completely protected from death”.

What about the “TNFα and IL-6 levels during septic shock” value ([6]; PSA i.v.) of the same substance?
The value was “suppressed”.

What about the survival [6, 13] of the same substance?
Its survival is “completely protected from death”.

What about the “protection from sepsis (serum TNF-α, survival)” value ([7]; RAG−/− animals (no T and B cells), PSA i.v. 24 hours prior to high dose LPS i.p.) of the same substance?
The value was “no longer protected animals from sepsis”.

And the “serum levels of TNFα” value [7, 14]?
Its value is “significantly reduced”.

What about the survival [7, 14] of the same substance?
The survival was “survived”.

And the “PSA mediated protection from death” value ([7]; RAG−/− recipients of CD3+ total T cells)?
The value was “unable to restore PSA mediated protection from death”.

What about the “prevention of death and suppression of systemic inflammation” value ([7]; RAG−/− recipients of CD4+ T cell depleted splenocytes) of the same substance?
The value was “restored the ability of PSA to prevent death and suppress systemic inflammation”.

And the “PSA mediated protection from death” value ([7]; RAG−/− recipients of CD4+ sort purified T cells)?
Its value is “unable to restore PSA mediated protection from death”.

What about the PSA mediated protection ([8]; RAG−/− recipients of B1b cells, data not shown) of the same substance?
Its PSA mediated protection is “did not restore PSA mediated protection”.

What about the survival ([8]; RAG−/− recipients of purified MZ B cells, PSA treated) of the same substance?
Its survival is “protect animals from sepsis induced death”.

What about the “serum levels of TNF-α” value ([8]; RAG−/− recipients of purified MZ B cells, PSA treated, 1 and 4 hours after high dose LPS) of the same substance?
Its value is “suppression of serum levels of TNF-α”.

And the “protection from endotoxin induced sepsis (serum TNF-α, mortality)” value ([9]; RAG−/− recipients of 8×10^5 MZ B cells from donors treated i.v. with PSA (100 ug), recipients not treated with PSA, LPS 500 ug)?
Its value is “completely protected from endotoxin induced sepsis”.

What about the “IgM serum levels during LPS induced sepsis” value ([9]; RAG−/− recipients of MZ B cells from PSA treated animals vs from mock treated mice) of the same substance?
The value was “high levels of circulating IgM”.

What about the “protection from sepsis (serum inflammatory cytokines, death)” value ([10]; PSA i.v. treated animals vs PBS treated) of the same substance?
The value was “protected”.

What about the “protection from sepsis (serum inflammatory cytokines, death)” value ([10]; RAG−/− animals that received MZ B cells from sIgM−/− mice, PSA i.v.) of the same substance?
The value was “no longer protected by administration of PSA”.

And the “overt inflammation on i.v. administration” value ([11]; PSA i.v. into animals)?
The value was “does not elicit overt inflammation”.

And the “TNF-α or IL-6 production induced by PSA on its own” value ([11]; PSA i.v., no LPS)?
Its value is “does not on its own induce”.
